Results as given in patent publication US7414077B2, “Therapeutic intervention to mimic the effect of caloric restriction” (priority 1999, dated 2008).

Columns and labels:
5′ deiodinase [1] = test: effect of in vitro free fatty acids on 5′ deiodinase activity (thyroid hormone synthesis in vitro); type: biochemical; conditions: 1 mM free fatty acid; as a function of substrate concentration
Method: (§1) Reaction velocities were measured under control conditions (▴) and in the presence of 1 mM free fatty acids palmitic acid (●) and oleic acid (▪). Each point on the curve represents the mean of triplicate determinations. Lineweaver-Burk plots described lines characterized by r^2 from 0.988-0.999.

5′ deiodinase [2] = test: 5′ deiodinase activity as a function of substrate concentration (Lineweaver-Burk), control conditions; type: biochemical; conditions: in vitro, without free fatty acids, mean of triplicate determinations, Lineweaver-Burk plot, FIG. 2A
Method: as §1

| SMILES | effect on thyroid hormone synthesis in vitro (5′ deiodinase activity) (5′ deiodinase [1]) | Km (5′ deiodinase [2]) [µM] |
| --- | --- | --- |
| CCCCCCCC/C=C\CCCCCCCC(=O)O [oleic acid] | inhibit thyroid hormone synthesis in vitro | – |
| CCCCCCCCCCCCCCCC(=O)O [palmitic acid] | inhibit thyroid hormone synthesis in vitro | – |
| N[C@@H](Cc1ccc(Oc2cc(I)c(O)c(I)c2)c(I)c1)C(=O)O [rT3] | – | 2.38 |
